Cytotoxicity data for 71 compounds are collected here from ChEMBL document CHEMBL3507680, “University of Dundee, Gates Library screen for HepG2 cell viability”.

The data set in a line: Human HepG2 cell viability assay in 384 well format. The following applies: HepG2 cells, read-out: Inhibition. Also on record: dose 125 nL, time 70.5 hour; concentration not given beside the values. The format is toxicity, cell-based.
In the case of `CNc1ncc(CN2CCCC2c2[nH]ncc2C(=O)N(C)C)cn1` (stereo unspecified), the cytotoxicity at 70.5 h was -3.21%. With `CC(C)N(C)C[C@H]1C[C@@H]2CN(Cc3ccco3)C[C@@H]2O1`, the cytotoxicity at 70.5 h was -1.96%.

With `CC(=O)N(Cc1noc(C2CC2)n1)C1CCN(Cc2cccnc2)C1` (stereo unspecified), the cytotoxicity at 70.5 h was -9.51%. As for `COCCNC(=O)c1cc(-n2cccc2)ccc1Cl`, the figure is -23.7%; as for `Cc1ccc(N2CC[C@H]3C[C@H](C(=O)NCc4ccco4)O[C@@H]3C2)cc1`, 2.5%; as for `CC(C)Cc1noc(CNc2cc3c(cc2Cl)OCCCO3)n1`, 1.94%.

With `O=C(N[C@@H]1CN(c2ncccn2)C[C@@H]2CCCO[C@@H]21)c1cccnc1`, the cytotoxicity at 70.5 h worked out at 7.96%.

For `Cc1ccc(C)c(NCc2nc3n(n2)CCCCC3)c1`, the cytotoxicity at 70.5 h was -15.6%. As for `CCc1nnc(C2Cc3ccccc3CN2Cc2ncc(Cl)n2C)o1` (stereo unspecified), the figure is -6.23%; as for `CC(Oc1ccc(F)cc1F)C(=O)N1CCC2(CCCO2)CC1` (stereo unspecified), 27%. The figure for `COc1ccc(CCNC(=O)Cn2ncc3c2c(C)nn3C)cc1` is -12.7%; for `CC(C)CCNc1nnc(C(C)C)s1` it is -3.84%. As to `CC(=O)N1CCCN(C(=O)CCc2c(C)nc3ccnn3c2C)CC1`, the cytotoxicity at 70.5 h is -15.3%. Regarding `O=C(c1cscn1)N1CCC2(CN(Cc3ccncc3)C2)C1`, the cytotoxicity at 70.5 h is -9.93%. In the case of `CC(CO)CN(Cc1ccccc1)C(=O)c1csc(CN(C)C)n1` (stereo unspecified), the cytotoxicity at 70.5 h was -3.43%.

For the compound `O=C(Nc1nc2c(s1)CN(S(=O)(=O)C1CC1)CC2)c1ccsc1`, the cytotoxicity at 70.5 h is -12.1%.

As for `Cc1nnsc1C(=O)N1CCC(c2nc3ccccc3[nH]2)CC1`, the cytotoxicity at 70.5 h amounted to 24%. Turning to `Cc1noc(C)c1C(=O)N1CCCC(c2c(C)c(=O)nc3n2CCC3)C1` (stereo unspecified), the cytotoxicity at 70.5 h was -9.85%. With `CCn1cnc(NC(=O)N2CCC(c3ccc(F)cc3)C2)n1` (stereo unspecified), the cytotoxicity at 70.5 h is -8.46%. As for `CN(Cc1ccoc1)C(=O)CN1C(=O)OC(C)(C)C1=O`, the cytotoxicity at 70.5 h is -8.72%.

With `N#Cc1cc(Cl)ccc1N1CCN(C(=O)C2CCC2)CC1`, the cytotoxicity at 70.5 h is -1.06%. Regarding `COC(=O)c1ccc(NC(=O)CCc2ccncc2)c(C)c1`, the cytotoxicity at 70.5 h is -11.9%. In the case of `Cc1cc(C)nc(NC(=O)C(C)Oc2ccc3c(c2)OCO3)n1` (stereo unspecified), the cytotoxicity at 70.5 h was -11.4%.

For the compound `CC(C)c1noc(C2CCCN2S(=O)(=O)Cc2ccc(F)cc2)n1` (stereo unspecified), the cytotoxicity at 70.5 h worked out at 0.0647%.

Regarding `CCc1nncn1CCNC(=O)Nc1ccc(OC)c(C)c1`, the cytotoxicity at 70.5 h was -7.19%. As to `COc1cc(C2CC(=O)Oc3cc(C)[nH]c(=O)c32)ccc1OCC(=O)O` (stereo unspecified), the cytotoxicity at 70.5 h was -14.1%. As for `Cc1cnccc1N1CCCN(C(=O)CCc2n[nH]c(C)c2C)CC1`, the figure is 18.7%. Consider `Cc1ccc(C)c(OCc2nnc(SCC3CCCN(C)C3)o2)c1` (stereo unspecified), for which the cytotoxicity at 70.5 h is -5.12%.

As for `Cc1cc(C)c(CNC(=O)C2CCCN(c3cnccn3)C2)c(=O)[nH]1` (stereo unspecified), the cytotoxicity at 70.5 h was -14.3%. In the case of `O=C(C1=COCCO1)N1CC(Oc2nc3c(C(F)(F)F)cccc3s2)C1`, the cytotoxicity at 70.5 h was determined as 10.3%. Take `CC(C)c1cc(C(=O)NCC(O)C2CCOCC2)nn1C(C)(C)C` (stereo unspecified): the cytotoxicity at 70.5 h amounted to 1.71%. In the case of `c1csc(CNc2ccccc2Cn2cncn2)c1`, the cytotoxicity at 70.5 h is 7.58%. For the compound `CN(CCCO)C(=O)c1ccc2c(c1)nc(N1CC[C@H](O)C1)n2C`, the cytotoxicity at 70.5 h was -7.06%.

As for `CC(C)C(CNC(=O)Nc1cn[nH]c1)N1CCOCC1` (stereo unspecified), the cytotoxicity at 70.5 h is -5.6%. Turning to `OCC1(NCc2cnc(-c3ccsc3)s2)CCOCC1`, the cytotoxicity at 70.5 h is -6.13%. In the case of `CC(C)CC(=O)N1CCC(c2nnc3n2CCCCC3)CC1`, the cytotoxicity at 70.5 h was -0.981%. As for `O=C(NCCN1CCOCC1)C(OC1CCCC1)c1ccccc1` (stereo unspecified), the figure is -3.19%; as for `CCCc1nc(CNc2ccc(F)c(F)c2)no1`, 14.6%; as for `CCCc1nc(C(=O)N2CCN(S(=O)(=O)CC)CC2)cs1`, 10.2%. In the case of `O=C(O)C1(Cc2ccccc2Cl)CCN(c2ncnc3[nH]ccc23)CC1`, the cytotoxicity at 70.5 h amounted to 10.8%.

Regarding `CCNc1nnc(SC(C(=O)NCc2cccnc2)C(C)C)s1` (stereo unspecified), the cytotoxicity at 70.5 h was -14.3%. On to `CN1CCc2nc(C3CCCN(C(=O)CC(C)(C)C)C3)ncc2C1` (stereo unspecified), for which the cytotoxicity at 70.5 h was -6.36%. As for `CCn1ncnc1C(NC(=O)CC1CCN(C(C)C)CC1)C1CC1` (stereo unspecified), the figure is 13.7%; as for `CCc1nnc(C2Cc3ccccc3CN2Cc2cc(C)on2)o1` (stereo unspecified), -2.94%; as for `Cc1ccnc(NC(=O)c2c(C)oc(C)c2C)c1`, 9.9%. As for `CN1CCN(C(=O)c2n[nH]c3c2CN(Cc2nccs2)CC3)CC1`, the figure is -12%.

As to `Cn1cnc(S(=O)(=O)N2C[C@H]3CN(Cc4ccccn4)C[C@H]3C2)c1`, the cytotoxicity at 70.5 h was -1.38%. In the case of `Cn1cnnc1C1CCN(C(=O)CCCOc2ccccc2F)CC1`, the cytotoxicity at 70.5 h is -12.8%. The figure for `CC(C)c1nc(-c2cc(C(=O)NCCN(C)C)c3ccccn23)cs1` is -1.61%. As to `CN1CCC(N(C)C(=O)c2cnn(-c3cc(F)ccc3F)c2N)CC1`, the cytotoxicity at 70.5 h was -0.483%. On to `Cc1cccc(CS(=O)(=O)CC(=O)N(C)Cc2ccccc2F)c1`, for which the cytotoxicity at 70.5 h is -6.9%. As to `CC1CCN(C(=O)NCC(=O)N(C)CC(F)(F)F)C1` (stereo unspecified), the cytotoxicity at 70.5 h is -4.12%. In the case of `CCOc1c(F)cccc1C(=O)N(C)CCc1ccccn1`, the cytotoxicity at 70.5 h amounted to 36.5%. Regarding `Cc1cc(=O)n(CCNS(=O)(=O)c2ccc(F)c(Cl)c2)cn1`, the cytotoxicity at 70.5 h is -4.51%.

As to `CCc1nc(CSC2CCCN(c3cnn(C)c3)C2=O)cs1` (stereo unspecified), the cytotoxicity at 70.5 h worked out at 7.29%. `Cn1c(CN2CCOC(CCc3ccncn3)C2)nc2ccccc21` (stereo unspecified): the cytotoxicity at 70.5 h is -3.77%. As for `COCCn1cc(C(=O)N2CCCC2c2cccc(C)c2)ccc1=O` (stereo unspecified), the cytotoxicity at 70.5 h is -4.94%. Turning to `CCS(=O)(=O)N1CC[C@]2(C[C@@H](OCC3CC3)CO2)C1`, the cytotoxicity at 70.5 h was -8.16%. As for `Cc1cnn(CC2CCCN2Cc2cc(=O)n3cc(C)ccc3n2)c1` (stereo unspecified), the cytotoxicity at 70.5 h is -1.28%. Turning to `Cc1cc(C(=O)N2CCOCC2c2nc(C)c[nH]2)nc(O)n1` (stereo unspecified), the cytotoxicity at 70.5 h amounted to 3.31%. For `COc1ncc(CN(C)C2CCN(C(C)C)CC2)cn1`, the cytotoxicity at 70.5 h came to 8.08%. With `Cc1ccc(NC(=O)[C@@H]2C[C@H](C(=O)O)CN(Cc3sccc3C)C2)cn1`, the cytotoxicity at 70.5 h came out at 18.3%. In the case of `CC(Cn1cccn1)NC(=O)Nc1ccc(N2CCCC2)nc1` (stereo unspecified), the cytotoxicity at 70.5 h was 10.1%. For `Cn1cc(-c2noc(C3(C)CCOCC3)n2)cn1`, the cytotoxicity at 70.5 h is 11.7%. For the compound `Cc1nnc(NCc2ccccc2F)c(C#N)c1C`, the cytotoxicity at 70.5 h was -5.23%.

Take `CCOCCN1CCN(CCOCC(F)(F)F)CC1`: the cytotoxicity at 70.5 h is -8.54%. For the compound `COc1ccc(NC(=O)NCc2cccc(N(C)C)n2)c(Cl)c1`, the cytotoxicity at 70.5 h was -8%. In the case of `CN1CCc2c(CNC(=O)c3nccn3C)cncc2C1`, the cytotoxicity at 70.5 h is -0.526%.

Turning to `COc1cc(C(=O)N(C)C(C)Cc2cc(C)ccn2)ccn1` (stereo unspecified), the cytotoxicity at 70.5 h came out at 25.8%. `O=C(CCc1ccc2c(c1)OCO2)N1CCCC(n2cccn2)C1` (stereo unspecified): the cytotoxicity at 70.5 h is 13.3%. `COc1c2ccc(C(=O)NCCCn3ncccc3=O)cc2nn1C`: the cytotoxicity at 70.5 h was 13.9%.
